Assays:
[1] = test system: Corynebacterium xerosis ATCC 7711; test: Agar diffusion test (caso-agar, stamped-out holes); type: cell-based; conditions: 10000 ppm, 100 μl per hole in double-distilled water, 37° C. for 2 days; two values per cell
Protocol: (§1) Test method: An agar diffusion test is carried out with the following modifications: Medium: casein-soya flour peptone agar (caso-agar) Test organisms: Corynebacterium xerosis ATCC 373 Corynebacterium xerosis ATCC 7711 Corynebacterium minutissimum ATCC 23358 Procedure: 500 ml of caso-agar are innoculated with 3.5 ml of an overnight culture of the bacteria, diluted 1:100, and caso plates (18 ml) are covered with a layer of about 5 ml of the bacteria-containing agar. […] Each stamped-out hole is filled with in each case 100 μl of a test substance dilution and the plates are incubated at 37° C. for 2 days. Double-distilled water is employed as the solvent for all the substances. In the case of […], the pH is adjusted to 3.3 by addition of 1 N NaOH. Chemically prepared S,S-EDDS is adjusted to the pH of 5.6 by addition of 1 N NaOH. Controls: Double-distilled water

[2] = test system: Corynebacterium xerosis ATCC 373; test: Agar diffusion test (caso-agar, stamped-out holes); type: cell-based; conditions: for Inhibitory aureola diameter Cory. xerosis ATTC 373: 10000 ppm, 100 μl per hole in double-distilled water, 37° C. for 2 days, two values per cell
Protocol: as §1

O=C(O)C[C@H](NCCN[C@@H](CC(=O)O)C(=O)O)C(=O)O [S,S-EDDS (prepared by fermentation), (S,S)-N,N′-ethylenediaminedisuccinic acid]
Inhibitory aureola diameter Cory. xerosis ATTC 7711 [1]: 15/15^1 | Inhibitory aureola diameter Cory. xerosis ATTC 373 [2]: 10/10^1

O=C(O)CN(CCN(CC(=O)O)CC(=O)O)CC(=O)O [EDTA, ethylenediaminetetraacetic acid, reference compound]
Inhibitory aureola diameter Cory. xerosis ATTC 7711 [1]: 2/2 | Inhibitory aureola diameter Cory. xerosis ATTC 373 [2]: 5/5 | bacteriostatic action against Corynebacterium xerosis ([2]; summary in words of Table 1 (both strains)): pronounced bacteriostatic action

O=C(O)C[C@H](NCCN[C@@H](CC(=O)O)C(=O)O)C(=O)O [R,R-EDDS, ethylenediaminedisuccinic acid]
Inhibitory aureola diameter Cory. xerosis ATTC 373 [2]: 15/15

— patent US6391325B1, “Use of nitrogen-containing complexing agents for deodorization and antimicrobial treatment of the skin and textile fibre materials” (Ciba Specialty Chemicals Corporation, priority 1996, dated 2002)
